In patent US9340788B2 (priority 2007, dated 2016):

Key:
HCMV [1] = assay: Viral attachment and internalization assay (pp65 immunofluorescence); assay type: cell-based, Human cytomegalovirus
Method: (A) HEL cells were pretreated with PBS (20 min 4° C.), IMC-3G3 (2 h, 37° C., 10 μg/ml), or PDGF-AA (20 min, 4° C., 10 ng/ml) prior to infection with HCMV (MOI of 1, 4° C., 1 h). Cells were returned to 37° C. for 30 minutes, and processed for pp65^HCMV and PDGFRα double immunofluorescence. […] All conditions were assayed in triplicate cultures. One hundred cells in 4 low magnification fields were counted. Bars represent SD.
Viral Attachment and Internalization Assays. Mouse fibroblasts and HEL cells (72 hours following siRNA transfections) were incubated with HCMV (MOI of 0.5) or mock treated for 1 hour at 4° C., after which cells were returned to 37° C. for 15, 30, or 60 min. Cells were fixed using methanol (20 min) and processed for pp65 immunofluorescence. Four low power fields were counted for each condition and pp65 positive were recorded for each 100 cells. Internalization assays were repeated twice.

HCMV [2] = assay: HCMV IE1 / viral gene expression, western blot of infected cells; assay type: cell-based, Human cytomegalovirus; conditions: for HCMV IE1 gene expression: IMC-3G3 10 μg/ml 12 h or Gleevec 100 nM 1 h pre-treatment, western blot
Method: (A) pp65 immunofluorescence after HCMV treatment (1 h, 4° C.) followed by shifting to 37° C. for indicated times. Rows represent (top to bottom): HEL, PDGFRα null fibroblasts, parental fibroblasts, null fibroblasts overexpressing hPDGFRα, HEL transfected with control, or PDGFRα siRNA. Nuclei were stained with DAPI. (B) Average±S.D. pp65 positive/100 cells counted in triplicate from (A). (C) Mock or HCMV infected cells were analyzed by western blotting with the indicated antibodies. Lanes 1-4 indicate HEL, 325S, PDGFRα null and PDGFRα null over-expressing hPDGFRα, respectively. (D) HEL transfected with control or PDGFRα siRNA were mock (lanes 1) or HCMV-treated (lanes 2) and subjected to western blots with indicated antibodies. (E) Western blot of HEL and U87 lysates after infection with mock (lanes 1), HCMV (lanes 2), or HCMV pretreated with IMC-3G3 (10 μg/ml, 12 h, lanes 3) or Gleevec (100 nM, 1 h, lanes 4). (F) PDGFRα siRNA treated cells infected with indicated HCMV strains and immunostained for IE1 12 hpi (primary infection). 6 dpi, supernatants were used to infect naïve HEL cells, followed by IE1 immunostaining and quantification (secondary infection). Average (n=6) values±S.D. are shown.
HUVEC cells were pre-treated with IMC-3G3 (10 μg/ml, Imclone, 12 h), or Gleevec (100 nM, 1 h) prior to HCMV or mock infection. 12 hours post-infection, cell lysates were analyzed by western blot for the presence of IE1 gene product. […] The same blot was stripped and re-probed for actin (lower panel). Lane designation is 1—Mock, 2—HCMV, 3—IMC-3G3+HCMV, 4—Gleevec+HCMV.
Upper panel: HEL cells pretreated with anti-human PDGFRα antibody (10 ng/ml, for 30 min, clone AF-307-NA from R&D; lanes 1 and 3) or with AG 1295 (lane 4, […], from Calbiochem) were stimulated with Towne HCMV (lanes 2 through 4) or Mock infected (lane 1) for 10 min at 37 C. Cells were washed and further incubated for 2 h at 37 C (to allow expression of IE1 gene product). Afterwards, cells were harvested in RIPA buffer and processed for western blotting as described.
Western Blot, Immunoprecipitation, and Immunofluorescence analyses. For stimulation experiments, cells were serum-starved for 24 h, followed by stimulation with HCMV (MOI of 0.5), PDGF-AA (5-10 ng/ml, from R&D Systems), or mock, for 10 minutes. In some cases, cells were pre-treated with IMC-3G3 (ImClone Inc.) at 10 µg/ml (2 or 12 h) or Gleevec® (100 nM, 1 h) prior to HCMV exposure. Cell lysates were analyzed by SDS-PAGE. Antibodies used were as follows: polyclonal anti-PDGFRα ( 1/500), phosphor-Tyrosine clone 4G10 ( 1/1000), and monoclonal anti-p85 PI3-K ( 1/1000), (Upstate Biotechnology), anti HCMV IE1 MAB810 (Chemicon; 1/1000), anti HCMV pp65 (Novocastra, 1/1000), anti-phosphor-PDGFRα ( 1/500, pTyr 754), anti-phosphor-Akt (Ser 473, 1/1000) and total Akt ( 1/1000; all from Cell Signaling). Anti-actin polyclonal control antibody was used ( 1/500, Sigma). Immunoprecipitations were performed using protein G (Pierce) according to manufacturer's instructions. For immunofluorescence, monoclonal HCMV pp65 and phosphor-PDGFRα (p-Tyr 754, Santa Cruz Biotechnology) were used, overnight at 4° C., followed by 1 hour incubation with secondary antibodies conjugated to Alexa-488, or Alexa 568 ( 1/5,000, Molecular Probes). Nuclei were counterstained with DAPI. Co-immunoprecipitation experiments were performed using full length soluble purified recombinant gB (gB 680, from Don Diamond, City of Hope, Calif.) and detergent soluble extract of HEL cells generated in lysis buffer (1% NP-40, 75 mM NaCl and 50 mM Tris-HCl). 500 μg of protein from total cell extract was incubated with 25 μg of gB 680 in lysis buffer in the presence of an anti-gB (Virusys, Inc) or anti-PDGFRα (R&D) antibody overnight at 4° C. Immune complexes were recovered with protein A-Sepharose beads (2 hr incubation), denatured and separated on SDS-PAGE for western blot with anti-gB (Virusys, Inc) or anti-PDGFRα (Cell Signaling Technology) antibodies.

[3] = human epithelial, endothelial, and fibroblast cells

Substance: IMC-3G3: humanized PDGFRα blocking antibody (ImClone Inc.)
- inhibition of HCMV entry (pp65 positive cells) (HCMV [1]; HEL cells, IMC-3G3 2 h, 37° C., 10 μg/ml, PDGF-AA 20 min, 4° C., 10 ng/ml, HCMV MOI of 1, 30 min at 37° C.): ~45%
- HCMV viral internalization (HCMV [1]; [3]): completely inhibited
- HCMV IE1 gene expression (HCMV [2]; HEL cells): completely inhibited
- HCMV IE1 expression (HCMV [2]; HUVEC, pre-treated with IMC-3G3 10 μg/ml 12 h or Gleevec 100 nM 1 h, western blot 12 hours post-infection): completely inhibited
- HCMV IE1 gene expression (HCMV [2]; U87 glioma cells): completely inhibited
- HCMV gene expression (HCMV [2]; [3]): completely inhibited
